Laboratory results published in patent publication US12479820B2, “Pyridin-3-yl derivatives” (Idorsia Pharmaceuticals Ltd, priority 2019, dated 2025).

These compounds were tested against T1, human LPA1 receptor (Homo sapiens, UniProt Q92633) (assay: Beta-arrestin recruitment assay to determine IC50 values for human LPAR1). Details: Tango EDG2-bla U2OS cells, antagonist assay, LPA 18:1 500 nM final.
T1 construct: TEV protease site; Gal4-VP16 transcription factor; host or cells: Tango EDG2-bla U2OS cells
Assay type: cell-based
Procedure, shortened: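 Tango EDG2-bla U2OS cells were preincubated 30 min at 37 °C with compound. They were then stimulated with 500 nM (final) LPA 18:1 for 16 h. β-Lactamase reporter read by LiveBLAzer FRET substrate (2 h) as the 460/530 nm ratio; IC50 from 4-parameter logistic fit.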

T1 sequence (Q92633 whole entry, the tested form may be a part): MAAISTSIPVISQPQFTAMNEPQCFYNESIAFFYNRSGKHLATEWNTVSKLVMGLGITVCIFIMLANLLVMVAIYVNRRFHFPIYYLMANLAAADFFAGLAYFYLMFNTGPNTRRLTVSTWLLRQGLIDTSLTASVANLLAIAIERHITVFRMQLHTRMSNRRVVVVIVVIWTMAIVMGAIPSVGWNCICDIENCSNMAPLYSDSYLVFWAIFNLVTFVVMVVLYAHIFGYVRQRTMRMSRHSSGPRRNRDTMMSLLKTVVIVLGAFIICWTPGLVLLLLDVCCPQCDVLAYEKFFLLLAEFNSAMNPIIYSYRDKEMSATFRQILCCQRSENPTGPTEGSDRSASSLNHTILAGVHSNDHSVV

Point of comparison: “4-(4-((6-chloro-4-methoxypyridin-3-yl)carbamoyl)-4-(2-isopropylphenyl)piperidin-1-yl)-2,2-dimethyl-4-oxobutanoic acid [Example 19-20]”, IC50 22 nM. Against it:
- COc1cc(Cl)ncc1NC(=O)C1(c2ccccc2C(C)C)CN(S(N)(=O)=O)C1 [Example 21-2, N-(6-chloro-4-methoxypyridin-3-yl)-3-(2-isopropylphenyl)-1-sulfamoylazetidine-3-carboxamide] — 7.3-fold lower, 3 nM
- COc1cc(Cl)ncc1NC(=O)C1(c2ccccc2C(C)C)CN(c2ncc(C#N)cn2)C1 [Example 24-8, N-(6-chloro-4-methoxypyridin-3-yl)-1-(5-cyanopyrimidin-2-yl)-3-(2-isopropylphenyl)azetidine-3-carboxamide] — 22-fold lower, 1 nM
- COc1cc(Cl)ncc1NC(=O)C1(c2ccccc2C(C)C)CN(C2CCC2)C1 [Example 18-8, N-(6-chloro-4-methoxypyridin-3-yl)-1-cyclobutyl-3-(2-isopropylphenyl)azetidine-3-carboxamide] — 7.3-fold lower, 3 nM
- COC(=O)c1cnc(N2CC(C(=O)Nc3cnc(Cl)cc3OC)(c3ccccc3C(C)C)C2)cn1 [Example 24-19, methyl 5-(3-((6-chloro-4-methoxypyridin-3-yl)carbamoyl)-3-(2-isopropylphenyl)azetidin-1-yl)pyrazine-2-carboxylate] — 2.4-fold lower, 9 nM
- COc1cc(Cl)ncc1NC(=O)C1(c2ccccc2C(C)C)CN(CCCc2nnn[nH]2)C1 [Example 18-5, 1-(3-(1H-tetrazol-5-yl)propyl)-N-(6-chloro-4-methoxypyridin-3-yl)-3-(2-isopropylphenyl)azetidine-3-carboxamide] — 16-fold higher, 347 nM
- CCOc1cc(Cl)ncc1NC(=O)C1(c2ccccc2C(C)C)CN(CCC(C)(C)C(=O)O)C1 [Example 18-19, 4-(3-((6-chloro-4-ethoxypyridin-3-yl)carbamoyl)-3-(2-isopropylphenyl)azetidin-1-yl)-2,2-dimethylbutanoic acid] — within 1.5-fold, 21 nM
- COc1cc(Cl)ncc1NC(=O)C1(c2ccccc2C(C)C)CN(C=O)C1 [Example 19-3, N-(6-chloro-4-methoxypyridin-3-yl)-1-formyl-3-(2-isopropylphenyl)azetidine-3-carboxamide] — 2.4-fold lower, 9 nM
- COc1cc(Cl)ncc1NC(=O)C1(c2c(F)cccc2C(C)C)CN(S(N)(=O)=O)C1 [Example 21-14, N-(6-chloro-4-methoxypyridin-3-yl)-3-(2-fluoro-6-isopropylphenyl)-1-sulfamoylazetidine-3-carboxamide] — 5.5-fold lower, 4 nM
- COC(=O)c1ccc(N2CC(C(=O)Nc3cnc(Cl)cc3OC)(c3ccccc3C(C)C)C2)nc1 [Example 24-21, methyl 6-(3-((6-chloro-4-methoxypyridin-3-yl)carbamoyl)-3-(2-isopropylphenyl)azetidin-1-yl)nicotinate] — 1.8-fold lower, 12 nM
- COc1cc(Cl)ncc1NC(=O)C1(c2ccccc2C(C)C)CN(Cc2cn[nH]c2)C1 [Example 18-14, 1-((1H-pyrazol-4-yl)methyl)-N-(6-chloro-4-methoxypyridin-3-yl)-3-(2-isopropylphenyl)azetidine-3-carboxamide] — 3.4-fold higher, 74 nM
- COc1cc(Cl)ncc1NC(=O)C1(c2ccccc2C(C)C)CN(C[C@@H](O)CO)C1 [Example 18-12, (R)-N-(6-chloro-4-methoxypyridin-3-yl)-1-(2,3-dihydroxypropyl)-3-(2-isopropylphenyl)azetidine-3-carboxamide] — within 1.5-fold, 28 nM
- COc1cc(Cl)ncc1NC(=O)C1(c2ccccc2C(C)C)CN(C2COC2)C1 [Example 18-9, N-(6-chloro-4-methoxypyridin-3-yl)-3-(2-isopropylphenyl)-1-(oxetan-3-yl)azetidine-3-carboxamide] — the same, 22 nM
- COc1cc(Cl)ncc1NC(=O)C1(c2ccccc2C(C)C)CCN(c2ncncc2F)CC1 [Example 24-17, N-(6-chloro-4-methoxypyridin-3-yl)-1-(5-fluoropyrimidin-4-yl)-4-(2-isopropylphenyl)piperidine-4-carboxamide] — 7.3-fold lower, 3 nM
- COc1cc(Cl)ncc1NC(=O)C1(c2nc(F)ccc2C(C)C)CN(S(N)(=O)=O)C1 [Example 21-17, N-(6-chloro-4-methoxypyridin-3-yl)-3-(6-fluoro-3-isopropylpyridin-2-yl)-1-sulfamoylazetidine-3-carboxamide] — within 1.5-fold, 16 nM
- COc1cc(Cl)ncc1NC(=O)C1(c2ccccc2C(C)C)CN(C(=O)Cn2nccn2)C1 [Example 19-7, 1-(2-(2H-1,2,3-triazol-2-yl)acetyl)-N-(6-chloro-4-methoxypyridin-3-yl)-3-(2-isopropylphenyl)azetidine-3-carboxamide] — within 1.5-fold, 15 nM
- COC[C@H](C)Oc1cc(Cl)ncc1NC(=O)C1(c2ccccc2C(C)C)CN(C(=O)NC2CC2)C1 [Example 22-6, (S)-N3-(6-chloro-4-((1-methoxypropan-2-yl)oxy)pyridin-3-yl)-N1-cyclopropyl-3-(2-isopropylphenyl)azetidine-1,3-dicarboxamide] — 7.3-fold lower, 3 nM
- C=C(C)C(=O)OCCNC(=O)N1CC(C(=O)Nc2cnc(Cl)cc2OC)(c2ccccc2C(C)C)C1 [Example 22-8, 2-(3-((6-chloro-4-methoxypyridin-3-yl)carbamoyl)-3-(2-isopropylphenyl)azetidine-1-carboxamido)ethyl methacrylate] — 1.8-fold lower, 12 nM
- COc1cc(Cl)ncc1NC(=O)C1(c2ccccc2C(C)C)CN(c2nc(C(=O)O)co2)C1 [Example 24-26, 2-(3-((6-chloro-4-methoxypyridin-3-yl)carbamoyl)-3-(2-isopropylphenyl)azetidin-1-yl)oxazole-4-carboxylic acid] — 4.1-fold higher, 91 nM
- COc1cc(Cl)ncc1NC(=O)C1(c2ccccc2C(C)C)CN(C(=O)Cn2ncnn2)C1 [Example 19-10, 1-(2-(2H-tetrazol-2-yl)acetyl)-N-(6-chloro-4-methoxypyridin-3-yl)-3-(2-isopropylphenyl)azetidine-3-carboxamide] — within 1.5-fold, 17 nM
- COc1cc(F)ncc1NC(=O)C1(c2ccccc2C(C)C)CN(S(N)(=O)=O)C1 [Example 21-1, N-(6-fluoro-4-methoxypyridin-3-yl)-3-(2-isopropylphenyl)-1-sulfamoylazetidine-3-carboxamide] — within 1.5-fold, 17 nM
- CCOC(=O)CNC(=O)N1CC(C(=O)Nc2cnc(Cl)cc2OC)(c2ccccc2C(C)C)C1 [Example 22-11, ethyl (3-((6-chloro-4-methoxypyridin-3-yl)carbamoyl)-3-(2-isopropylphenyl)azetidine-1-carbonyl)glycinate] — within 1.5-fold, 18 nM
- COC(=O)C(C)(C)CCN1CC(C(=O)Nc2cnc(Cl)cc2OC)(c2ccccc2C(C)C)C1 [Example 18-16, methyl 4-(3-((6-chloro-4-methoxypyridin-3-yl)carbamoyl)-3-(2-isopropylphenyl)azetidin-1-yl)-2,2-dimethylbutanoate] — 5-fold higher, 111 nM
- COc1cc(Cl)ncc1NC(=O)C1(c2ccccc2C(C)C)CN(C(=O)Cn2cc(C)nn2)C1 [Example 19-8, N-(6-chloro-4-methoxypyridin-3-yl)-3-(2-isopropylphenyl)-1-(2-(4-methyl-1H-1,2,3-triazol-1-yl)acetyl)azetidine-3-carboxamide] — 2-fold higher, 43 nM

Each compound was assayed on LPA-induced skin vascular leakage in Balb/c mice (assay: mouse LPA-induced skin vascular leakage model). Details: oral administration of 30 mg/kg to mice; extravasated Evans blue per skin disc.
Assay type: in vivo
Experimental: Assessment of In Vivo Potency
The in vivo potency of the compounds of Formula (I) can be determined using a mouse LPA-induced skin vascular leakage model. Female Balb/c mice are treated with either vehicle or test compound (e.g. at 30 mg/kg or 100 mg/kg p.o.) for at least 1 h prior to administration of the albumin marker Evans blue (50 mg/kg, i.v., 0.9% NaCl) and subsequent challenge with LPA (5 μg, i.d.). After 30 minutes, mice are sacrificed by CO2 inhalation. Discs of skin from the injection sites are removed, digested in formamide (500 μl, 37° C., 24 hrs) and the content of Evans blue quantified by colorimetric assay. Results are expressed as extravasated Evans blue per skin disc (μg/disc).
As an example, selected compound of the present invention, Ex 21-2, is able to effectively reduce LPA-induced vascular leakage after oral administration of 30 mg/kg to mice as compared to a group of animals treated with vehicle only. Reduction of vascular leakage compared to vehicle group was >60%.

With `COc1cc(Cl)ncc1NC(=O)C1(c2ccccc2C(C)C)CN(S(N)(=O)=O)C1` [Example 21-2, N-(6-chloro-4-methoxypyridin-3-yl)-3-(2-isopropylphenyl)-1-sulfamoylazetidine-3-carboxamide] the “Reduction of vascular leakage compared to vehicle group” value was over 60%.
